According to ChEMBL document CHEMBL4414641, “Chemical Constituents of Anneslea fragrans and Their Antiausterity Activity against the PANC-1 Human Pancreatic Cancer Cell Line” (J Nat Prod, 2019):
The source made the active and inactive calls. No cut-off for these calls is given here.

What was measured:
PANC-1 [1] = assay: Anti-austerity activity against nutrient-deprived human PANC1 cells assessed as cell death incubated for 24 hrs by WST-8 assay; type: functional
PANC-1 [2] = assay: Cytotoxicity against nutrient-rich DMEM cultured human PANC1 cells at PC50 incubated for 24 hrs by WST-8 assay; type: cell-based; conditions: panc-1, 24 h
PANC-1 [3] = assay: Inhibition of cell migration in human PANC1 cells assessed as decrease in velocity of cell migration at 100 uM cultured in nutrient rich DMEM medium measured every 15 mins for 72 hrs by quantitative real-time imaging analysis; type: functional, cell-based
PANC-1 [4] = assay: Inhibition of cell migration in human PANC1 cells assessed as closed wound area at 100 uM cultured in nutrient rich DMEM medium measured within 24 hrs by quantitative real-time imaging based wound healing assay (reference value: 100%); type: functional; design: scale not given: the % may be the effect or the level left
PANC-1 [5] = assay: Inhibition of cell migration in human PANC1 cells assessed as open wound area at 100 uM cultured in nutrient rich DMEM medium measured after 24 hrs by quantitative real-time imaging based wound healing assay relative to control; type: functional; design: scale not given: the % may be the effect or the level left
PANC-1 [6] = assay: Inhibition of cell migration in human PANC1 cells assessed as open wound area at 100 uM cultured in nutrient rich DMEM medium measured after 72 hrs by quantitative real-time imaging based wound healing assay (reference value: 5%); type: functional; design: scale not given: the % may be the effect or the level left
PANC-1 [7] = assay: Inhibition of cell migration in human PANC1 cells assessed as open wound area at 100 uM cultured in nutrient rich DMEM medium measured after 48 hrs by quantitative real-time imaging based wound healing assay (reference value: 12%); type: functional; design: scale not given: the % may be the effect or the level left
PANC-1 [8] = assay: Inhibition of cell migration in human PANC1 cells at 100 uM cultured in nutrient rich DMEM medium measured every 15 mins for 72 hrs by quantitative real-time imaging analysis; type: functional, cell-based

C[C@@H]1O[C@@H](Oc2c(-c3ccc(O)cc3)oc3cc(O)cc(O)c3c2=O)[C@H](O)[C@H](O)[C@H]1O [AFZELIN]
PC50 (PANC-1 [1]): 8.9 µM
Activity (PANC-1 [2]): Non-Toxic

O=C(CCc1ccc(O)cc1)c1ccc(O[C@@H]2O[C@H](CO)[C@@H](O)[C@H](O)[C@H]2O)cc1O [CONFUSOSIDE]
PC50 (PANC-1 [1]): 82.6 µM
Activity (PANC-1 [2]): Non-Toxic

CC[C@H](/C=C/[C@@H](C)[C@H]1CC[C@H]2C3=CC[C@H]4C[C@@H](O)CC[C@]4(C)[C@H]3CC[C@]12C)C(C)C
PC50 (PANC-1 [1]): 58.1 µM
Activity (PANC-1 [2]): Non-Toxic

O=C(/C(O)=C/c1ccc(O)c(O)c1)c1ccc(O[C@H]2COC(=O)[C@@H]2O)cc1O
PC50 (PANC-1 [1]): >100 µM
Activity (PANC-1 [2]): Non-Toxic

O=C(/C=C/c1ccc(O)c(O)c1)c1ccc(O)cc1O [BUTEIN]
PC50 (PANC-1 [1]): 67 µM
Activity (PANC-1 [2]): Non-Toxic

COc1cc(C[C@H]2C(=O)OC[C@@H]2Cc2ccc(OC)c(OC)c2)ccc1O [ARCTIGENIN]
PC50 (PANC-1 [1]): 0.7 µM
Activity (PANC-1 [2]): Non-Toxic

O=C(CCc1ccc(O)c(O)c1)c1ccc(O[C@@H]2O[C@H](CO)[C@@H](O)[C@H](O)[C@H]2O)cc1O
PC50 (PANC-1 [1]): 10.4 µM
Activity (PANC-1 [2]): Non-Toxic

COc1cc2oc(=O)ccc2cc1O [ISOSCOPOLETIN]
PC50 (PANC-1 [1]): 26.9 µM
Activity (PANC-1 [2]): Non-Toxic

C[C@@H]1O[C@@H](OC[C@H]2O[C@@H](Oc3c(-c4ccc(O)cc4)oc4cc(O)cc(O)c4c3=O)[C@H](O)[C@@H](O)[C@@H]2O)[C@H](O)[C@H](O)[C@H]1O [NICOTIFLOROSIDE]
PC50 (PANC-1 [1]): 67.1 µM
Activity (PANC-1 [2]): Non-Toxic

CC1(C)OC[C@H]2O[C@@H](Oc3ccc(C(=O)CCc4ccc(O)cc4)c(O)c3)[C@H](O)[C@@H](O)[C@@H]2O1
inhibition (PANC-1 [3]): Active
Activity (PANC-1 [4]): 38%
Activity (PANC-1 [5]): 93%
PC50 (PANC-1 [1]): 60.9 µM
Activity (PANC-1 [2]): Non-Toxic
Activity (PANC-1 [6]): 72%
Activity (PANC-1 [7]): 81%
inhibition (PANC-1 [8]): Active

O=c1c(O[C@@H]2O[C@H](CO)[C@@H](O)[C@H](O)[C@H]2O)c(-c2ccc(O)c(O)c2)oc2cc(O)cc(O)c12 [ISOQUERCETIN]
PC50 (PANC-1 [1]): >100 µM
Activity (PANC-1 [2]): Non-Toxic

O=c1c(O)c(-c2ccc(O)c(O)c2)oc2cc(O)cc(O)c12 [QUERCETIN]
PC50 (PANC-1 [1]): 21.8 µM
Activity (PANC-1 [2]): Non-Toxic

Oc1cc(O)c2c(c1)O[C@H](c1ccc(O)c(O)c1)[C@H](O)C2 [(-)-EPICATECHIN]
PC50 (PANC-1 [1]): 14.7 µM
Activity (PANC-1 [2]): Non-Toxic

O=C(CCc1ccc(O)c(O)c1)c1ccc(O)cc1O
Activity (PANC-1 [2]): Non-Toxic

O=C(CCc1ccc(O)cc1)c1ccc(O)cc1O[C@@H]1O[C@H](CO)[C@@H](O)[C@H](O)[C@H]1O
PC50 (PANC-1 [1]): >100 µM
Activity (PANC-1 [2]): Non-Toxic

C=C(C)[C@@H]1CC[C@]2(C)CC[C@]3(C)[C@H](CC[C@@H]4[C@@]5(C)CC[C@H](O)C(C)(C)[C@@H]5CC[C@]43C)[C@@H]12 [LUPEOL]
PC50 (PANC-1 [1]): 38.6 µM
Activity (PANC-1 [2]): Non-Toxic

C[C@@H]1O[C@@H](O[C@H]2[C@H](Oc3c(-c4ccc(O)cc4)oc4cc(O)cc(O)c4c3=O)O[C@H](CO)[C@@H](O)[C@@H]2O)[C@H](O)[C@H](O)[C@H]1O
PC50 (PANC-1 [1]): 17.4 µM
Activity (PANC-1 [2]): Non-Toxic

C=C(C)[C@@H]1CC[C@]2(CO)CC[C@]3(C)[C@H](CC[C@@H]4[C@@]5(C)CC[C@H](O)C(C)(C)[C@@H]5CC[C@]43C)[C@@H]12 [BETULIN]
PC50 (PANC-1 [1]): 8.4 µM
Activity (PANC-1 [2]): Non-Toxic
